Measurements published in paper PMC12526004, “Tiliroside Suppresses Uric Acid Production in Hepatocytes and Attenuates Purine-Induced Hyperuricemia in Male ICR Mice” (Molecules, 2025).
pIC50: −log10 of the molar value.

Assays:
[1] = tested on: mice with purine-induced hyperuricemia; experiment: Hepatic UA level in hyperuricemic model mice; type: in vivo, male ICR mice; settings: three days; for Hepatic UA Level: mean ± SEM
Method: (§1) The antihyperuricemic effect of tiliroside was evaluated using mice with purine-induced hyperuricemia, following a previously described procedure. […] The test compounds were suspended in 0.2 mL of 0.5% CMC-Na based on the average body weight of each group. The actual volume administered was adjusted according to the individual body weight of each mouse. Prior to each administration, the mice were fasted for four hours. The negative and hyperuricemic control groups received the vehicle (0.5% CMC-Na) alone. […] GMP and IMP were dissolved in 0.2 mL of PBS (–) based on the average body weight of all mice. The injection volume was similarly adjusted according to each mouse’s body weight. These injections were performed one hour after the final oral administration of the test compounds or vehicle. The negative control group received PBS (–) alone. […] The liver and kidneys were then excised. Blood samples were centrifuged at 5000× g for 10 min at 4 °C to obtain plasma, which was stored at −80 °C until analysis. Liver samples preparation was performed according to the methods previously described. Each portion of the liver tissue was processed for a specific analysis. One portion was homogenized in ice-cold 100 mM Tris-HCl buffer (pH 7.5), followed by sonication and centrifugation at 10,000× g for 5 min at 4 °C. The resulting supernatant was collected for the determination of UA levels. Another portion was treated similarly using Tris-HCl buffer containing 1 mM EDTA-2Na, and the supernatant was used to measure XO activity. The final portion was homogenized in ice-cold RIPA lysis buffer (Nacalai Tesque) and centrifuged under the same conditions, and the resulting supernatant was used for Western blot analysis. UA concentrations in plasma and liver homogenates were determined using the uricase-based Uric Acid C-Test Wako. Protein concentrations in the liver samples were measured with the Pierce™ BCA Protein Assay Kit. Liver UA levels were expressed as milligrams per gram of liver protein (mg/g protein).

[2] = tested on: hepatic XO protein expression; experiment: Western blot of hepatic XO protein expression; type: in vivo, male ICR mice; settings: three days, normalized to GAPDH
Method: as §1, with “Another portion was treated similarly using Tris-HCl buffer containing 1 mM EDTA-2Na, and the supernatant was used to measure XO activity. The final portion was homogenized in ice-cold RIPA lysis buffer (Nacalai Tesque) and centrifuged under the same conditions, and the resulting supernatant was used for Western blot analysis. UA concentrations in plasma and liver homogenates were determined using the uricase-based Uric Acid C-Test Wako. Protein concentrations in the liver samples were measured with the Pierce™ BCA Protein Assay Kit. Liver UA levels were expressed as milligrams per gram of liver protein (mg/g protein).” left out

[3] = biological target: xanthine oxidase (bovine milk-derived) (Bos taurus, UniProt P80457); experiment: XO inhibition assay in vitro (UV absorbance at 295 nm); type: biochemical; settings: xanthine substrate, 37 °C, mean of three independent experiments, read-out: IC50, direct XO inhibitory activity
Method: Prior to the assay, the compounds were freshly dissolved in a mixture of 30% dimethyl sulfoxide (DMSO; FUJIFILM Wako) and 70% phosphate buffer (100 mM, pH 7.5) to prepare test solutions at final concentrations ranging from 0 to 100 µM. In each well of a 96-well microplate, 50 µL of the test solution was mixed with 60 µL of buffer and 30 µL of xanthine oxidase (7.8 mU/mL, bovine milk-derived; Sigma-Aldrich). After preincubation at 37 °C for 10 min, the reaction was initiated by adding 60 µL of xanthine substrate (150 µM; FUJIFILM Wako). Absorbance at 295 nm was monitored for 30 min at 37 °C using a Spark 10 M microplate reader (Tecan Group Ltd., Männedorf, Switzerland). XO inhibitory activity was expressed as percentage inhibition, calculated using the formula Inhibition (%) = 100 × [1 − (B/A)], where A and B represent the absorbance increase in the absence and presence of the test compound, respectively. All measurements were performed in triplicate.
All experimental data are presented as mean ± SEM. […] Data from the in vitro XO inhibition assay are shown as mean values from three independent experiments. IC50 values were calculated by nonlinear regression analysis using dose–response curves generated from at least six concentrations of each compound. All statistical analyses were performed using GraphPad Prism version 10 (GraphPad Software, San Diego, CA, USA).

AML12 hepatocytes = experiment: Cell viability, WST-8 assay; type: cell-based; settings: concentrations up to 100 µM, 2 h
Method: The viability of AML12 cells was determined using the WST-8 assay provided in the Cell Counting Kit-8 (Dojindo Laboratories, Kumamoto, Japan). Cells were initially seeded at 5 × 10^3 cells per well in 96-well plates and maintained in DMEM/F-12 medium containing 10% (v/v) FBS for 72 h. To induce serum deprivation, the medium was replaced with serum-free DMEM/F-12, and cells were incubated for an additional 24 h. […] The treatment lasted for 2 h. Subsequently, cells were washed again with BSS and incubated with the WST-8 reagent for 1 h. Absorbance was measured at 490 nm using a microplate reader (MTP-310Lab; CORONA […] Co., Ltd., […], Japan). Cell viability was normalized to the DMSO control (0 μM), which was set at 100%.

hepatic XO = biological target: T1, hepatic XO (Mus musculus, UniProt Q00519); experiment: Hepatic XO activity in hyperuricemic model mice; type: in vivo, male ICR mice; settings: three days, mean ± SEM
T1 construct: 40 µL of liver homogenate was mixed with 30 µL of ice-cold 100 mM Tris-HCl buffer; from tissue; host or cells: liver of male ICR mice (homogenate supernatant)
Method: The test compounds were suspended in 0.2 mL of 0.5% CMC-Na based on the average body weight of each group. The actual volume administered was adjusted according to the individual body weight of each mouse. Prior to each administration, the mice were fasted for four hours. The negative and hyperuricemic control groups received the vehicle (0.5% CMC-Na) alone. On the third day of treatment, hyperuricemia was induced by intraperitoneal injection of guanosine monophosphate (GMP) and inosine monophosphate (IMP, both from Tokyo Chemical Industry, Tokyo, Japan), each at a dose of 300 mg/kg body weight, dissolved in PBS (–). GMP and IMP were dissolved in 0.2 mL of PBS (–) based on the average body weight of all mice. The injection volume was similarly adjusted according to each mouse’s body weight. These injections were performed one hour after the final oral administration of the test compounds or vehicle. The negative control group received PBS (–) alone. […] The liver and kidneys were then excised. Blood samples were centrifuged at 5000× g for 10 min at 4 °C to obtain plasma, which was stored at −80 °C until analysis.
Liver samples preparation was performed according to the methods previously described [27]. Each portion of the liver tissue was processed for a specific analysis. One portion was homogenized in ice-cold 100 mM Tris-HCl buffer (pH 7.5), followed by sonication and centrifugation at 10,000× g for 5 min at 4 °C. […]
Hepatic XO activity was assessed using a previously reported method [28], with slight modifications to accommodate 96-well microplate measurements [33]. […] The enzymatic reaction was initiated by adding 180 µL of xanthine solution (150 µM in the same buffer), and the absorbance at 295 nm was monitored at 37 °C for 30 min using a Spark 10 M microplate reader. UA formation was quantified based on a standard curve generated with known concentrations of UA. Protein content in the homogenates was determined using the Pierce™ BCA Protein Assay Kit, and XO activity was expressed as micromoles of UA produced per minute per milligram of protein (µmol UA/min/mg protein).

XO = settings: read-out: IC50, XO inhibition (previous report); cited from earlier work
[4] = set-up: method as in PMID 39830960; settings: cited from earlier work

T1 sequence (Q00519 whole entry): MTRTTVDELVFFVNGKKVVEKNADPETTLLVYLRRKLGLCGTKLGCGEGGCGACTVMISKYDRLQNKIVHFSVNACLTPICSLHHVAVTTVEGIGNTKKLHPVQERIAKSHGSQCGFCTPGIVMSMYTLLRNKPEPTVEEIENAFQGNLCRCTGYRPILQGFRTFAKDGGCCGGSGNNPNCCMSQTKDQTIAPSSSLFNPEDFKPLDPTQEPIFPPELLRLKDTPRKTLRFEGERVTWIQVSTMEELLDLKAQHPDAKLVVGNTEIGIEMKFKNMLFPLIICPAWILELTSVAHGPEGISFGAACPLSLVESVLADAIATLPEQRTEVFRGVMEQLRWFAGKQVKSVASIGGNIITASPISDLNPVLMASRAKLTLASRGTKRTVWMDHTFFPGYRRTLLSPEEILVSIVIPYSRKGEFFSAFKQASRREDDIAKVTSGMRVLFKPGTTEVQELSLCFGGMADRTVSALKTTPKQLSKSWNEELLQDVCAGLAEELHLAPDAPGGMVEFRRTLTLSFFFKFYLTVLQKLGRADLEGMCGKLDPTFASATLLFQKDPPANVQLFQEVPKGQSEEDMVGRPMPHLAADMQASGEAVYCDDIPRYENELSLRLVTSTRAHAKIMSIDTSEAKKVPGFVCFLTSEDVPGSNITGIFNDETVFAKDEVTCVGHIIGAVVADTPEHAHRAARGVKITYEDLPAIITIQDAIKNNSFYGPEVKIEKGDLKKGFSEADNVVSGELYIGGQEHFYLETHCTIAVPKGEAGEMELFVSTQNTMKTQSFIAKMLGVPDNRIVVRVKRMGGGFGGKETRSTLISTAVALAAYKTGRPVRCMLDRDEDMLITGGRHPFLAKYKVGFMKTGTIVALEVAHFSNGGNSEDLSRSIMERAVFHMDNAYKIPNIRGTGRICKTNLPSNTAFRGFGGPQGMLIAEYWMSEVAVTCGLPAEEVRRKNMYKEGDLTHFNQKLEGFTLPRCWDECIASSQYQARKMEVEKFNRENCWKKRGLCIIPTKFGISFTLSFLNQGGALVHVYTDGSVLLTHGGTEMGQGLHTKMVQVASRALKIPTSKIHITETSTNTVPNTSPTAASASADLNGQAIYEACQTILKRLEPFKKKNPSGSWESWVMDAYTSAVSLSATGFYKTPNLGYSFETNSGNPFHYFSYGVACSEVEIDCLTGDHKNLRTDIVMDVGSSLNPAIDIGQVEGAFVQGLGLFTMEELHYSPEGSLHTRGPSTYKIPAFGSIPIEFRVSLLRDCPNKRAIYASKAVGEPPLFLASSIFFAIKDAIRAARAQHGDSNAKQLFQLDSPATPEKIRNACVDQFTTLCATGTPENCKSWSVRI
Sequence of xanthine oxidase (bovine milk-derived) (P80457 whole entry): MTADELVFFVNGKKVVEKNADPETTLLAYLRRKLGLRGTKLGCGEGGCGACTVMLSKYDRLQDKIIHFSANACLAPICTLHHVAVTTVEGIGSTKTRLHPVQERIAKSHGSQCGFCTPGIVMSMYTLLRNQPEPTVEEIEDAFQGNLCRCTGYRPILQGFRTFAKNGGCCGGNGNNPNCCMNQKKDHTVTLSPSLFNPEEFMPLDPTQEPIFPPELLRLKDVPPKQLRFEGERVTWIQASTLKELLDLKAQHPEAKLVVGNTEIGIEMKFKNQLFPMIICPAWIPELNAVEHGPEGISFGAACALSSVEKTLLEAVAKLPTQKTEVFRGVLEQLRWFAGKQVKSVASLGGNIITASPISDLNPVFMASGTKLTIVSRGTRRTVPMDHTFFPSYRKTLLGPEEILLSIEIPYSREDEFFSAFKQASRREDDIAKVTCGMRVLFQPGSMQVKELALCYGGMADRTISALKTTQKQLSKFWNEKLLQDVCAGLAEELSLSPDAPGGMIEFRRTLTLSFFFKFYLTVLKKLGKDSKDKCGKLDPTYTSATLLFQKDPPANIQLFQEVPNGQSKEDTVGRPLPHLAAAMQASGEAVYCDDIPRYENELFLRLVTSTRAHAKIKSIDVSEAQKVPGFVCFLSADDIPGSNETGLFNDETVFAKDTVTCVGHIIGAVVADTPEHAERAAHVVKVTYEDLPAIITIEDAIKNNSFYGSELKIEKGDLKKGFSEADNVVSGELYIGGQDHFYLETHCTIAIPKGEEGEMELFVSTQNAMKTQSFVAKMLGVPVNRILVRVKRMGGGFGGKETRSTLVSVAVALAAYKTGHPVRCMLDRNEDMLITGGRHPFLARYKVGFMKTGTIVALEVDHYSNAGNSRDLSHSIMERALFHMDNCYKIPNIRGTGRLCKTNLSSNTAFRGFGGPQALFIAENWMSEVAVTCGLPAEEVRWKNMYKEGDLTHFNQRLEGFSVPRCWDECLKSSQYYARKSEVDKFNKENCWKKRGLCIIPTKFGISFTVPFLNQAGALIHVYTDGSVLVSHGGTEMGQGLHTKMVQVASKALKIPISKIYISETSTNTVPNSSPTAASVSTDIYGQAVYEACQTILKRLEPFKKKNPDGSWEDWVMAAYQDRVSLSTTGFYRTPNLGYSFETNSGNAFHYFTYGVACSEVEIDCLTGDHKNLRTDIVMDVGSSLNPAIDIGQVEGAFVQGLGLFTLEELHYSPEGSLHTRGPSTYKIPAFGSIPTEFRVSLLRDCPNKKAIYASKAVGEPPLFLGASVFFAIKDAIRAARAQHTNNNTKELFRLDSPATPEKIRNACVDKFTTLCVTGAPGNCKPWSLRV

SMILES	Hepatic UA Level ([1]; 10 mg/kg body weight oral) [mg/g Protein]	hepatic XO protein expression ([2]; 10 mg/kg oral)	pIC50 [3]	cytotoxic effects (cell viability) (AML12 hepatocytes)	Hepatic UA Level ([1]; 50 mg/kg oral) [mg/g Protein]	Hepatic UA Level ([1]; 100 mg/kg oral) [mg/g Protein]	lowering of hepatic UA level ([1]; 300 mg/kg oral, hyperuricemic mice) [%]	Hepatic UA Level ([1]; 300 mg/kg oral) [mg/g Protein]	Hepatic XO Activity (hepatic XO; 50 mg/kg oral) [µmol UA/min/mg Protein]	Hepatic XO Activity (hepatic XO; 100 mg/kg oral) [µmol UA/min/mg Protein]	Hepatic XO Activity (hepatic XO; 300 mg/kg oral) [µmol UA/min/mg Protein]	hepatic XO protein expression ([2]; all tested doses (50, 100, and 300 mg/kg) oral)	pIC50 (XO)	toxicity and mutagenicity [4]
Oc1ncnc2[nH]ncc12 [Allopurinol, allopurinol, reference compound]	0.60 ± 0.03	No statistically significant differences												
O=C(/C=C/c1ccc(O)cc1)OC[C@H]1O[C@@H](Oc2c(-c3ccc(O)cc3)oc3cc(O)cc(O)c3c2=O)[C@H](O)[C@@H](O)[C@@H]1O [Tiliroside, kaempferol-3-O-(6′′-p-coumaroyl)-glucoside]			< 4.00	did not exhibit any cytotoxic effects	1.30 ± 0.16	1.13 ± 0.16	~55	0.79 ± 0.11	0.70 ± 0.08	0.82 ± 0.06	0.67 ± 0.07	No statistically significant differences	< 4.00	non-toxic and non-mutagenic
